Laboratory results taken from PubChem BioAssay AID2060507 (Molecular Pharmacology Branch, DTP, NCI, 2025).
pIC50: −log10 of the molar value.

System: 519858-162-T-J1-PDC complex spheroid viability
Assay: Anticancer human tumor 519858-162-T-J1-PDC patient-derived colon adenocarcinoma cell line growth inhibition [GQUAD]
Conditions: for pIC50: curve of first compound; for viability, T/C: stronger effect = lower value; active means viability on the fitted dose curve at most 10% of control; inactive means the rest
Procedure, shortened: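 Tumor cells were grown as complex spheroids with HUVEC endothelial cells and mesenchymal stem cells as stroma. G-quadruplex stabilizers were combined with targeted agents over half-log dilutions from near the clinical Cmax, or from 10 microM.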

[1] = second compound 0.0316 µM, first compound 0.0316 µM
[2] = second compound 0.0316 µM, first compound 0.1 µM
[3] = second compound 0.0316 µM, first compound 0.316 µM
[4] = second compound 0.0316 µM, first compound 1 µM
[5] = second compound 0.0316 µM, first compound 3.16 µM
[6] = second compound 0.0316 µM, first compound 10 µM
[7] = second compound 0.1 µM, first compound 0.0316 µM
[8] = second compound 0.1 µM, first compound 0.1 µM
[9] = second compound 0.1 µM, first compound 0.316 µM
[10] = second compound 0.1 µM, first compound 1 µM
[11] = second compound 0.1 µM, first compound 3.16 µM
[12] = second compound 0.1 µM, first compound 10 µM
[13] = second compound 0.316 µM, first compound 0.0316 µM
[14] = second compound 0.316 µM, first compound 0.1 µM
[15] = second compound 0.316 µM, first compound 0.316 µM
[16] = second compound 0.316 µM, first compound 1 µM
[17] = second compound 0.316 µM, first compound 3.16 µM
[18] = second compound 0.316 µM, first compound 10 µM
[19] = second compound 1 µM, first compound 0.0316 µM
[20] = second compound 1 µM, first compound 0.1 µM
[21] = second compound 1 µM, first compound 0.316 µM
[22] = second compound 1 µM, first compound 1 µM
[23] = second compound 1 µM, first compound 3.16 µM
[24] = second compound 1 µM, first compound 10 µM
[25] = second compound 3.16 µM, first compound 0.0316 µM
[26] = second compound 3.16 µM, first compound 0.1 µM
[27] = second compound 3.16 µM, first compound 0.316 µM
[28] = second compound 3.16 µM, first compound 1 µM
[29] = second compound 3.16 µM, first compound 3.16 µM
[30] = second compound 3.16 µM, first compound 10 µM
[31] = second compound 10 µM, first compound 0.0316 µM
[32] = second compound 10 µM, first compound 0.1 µM
[33] = second compound 10 µM, first compound 0.316 µM
[34] = second compound 10 µM, first compound 1 µM
[35] = second compound 10 µM, first compound 3.16 µM
[36] = second compound 10 µM, first compound 10 µM
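Further: spheroids exposed to compounds for 7 days.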
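Wherever viability, T/C is given: 100% = DMSO vehicle control viability.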

CC(C)n1c(=O)n(C)c2cnc3cc(F)c(-c4ccc(OCCCN5CCCCC5)nc4)cc3c21 + Cc1[nH]c2ccc(F)cc2c1-c1nc2c3cccnc3c3ncccc3c2[nH]1
< 5.00: pIC50 (second compound 0.0316 µM) | pIC50 (second compound 0.1 µM) | pIC50 (second compound 0.316 µM) | pIC50 (second compound 1 µM) | pIC50 (second compound 3.16 µM) | pIC50 (second compound 10 µM)
inactive: viability, T/C [1] 97.7% | viability, T/C [2] 124% | viability, T/C [3] 114% | viability, T/C [4] 107% | viability, T/C [5] 78.2% | viability, T/C [6] 67.9% | viability, T/C [7] 77.5% | viability, T/C [8] 96.8% | viability, T/C [9] 86.6% | viability, T/C [10] 91.3% | viability, T/C [11] 89.7% | viability, T/C [12] 121% | viability, T/C [13] 91.5% | viability, T/C [14] 94.2% | viability, T/C [15] 82% | viability, T/C [16] 101% | viability, T/C [17] 84.8% | viability, T/C [18] 80.7% | viability, T/C [19] 79.2% | viability, T/C [20] 85.5% | viability, T/C [21] 101% | viability, T/C [22] 119% | viability, T/C [23] 96.4% | viability, T/C [24] 69.5% | viability, T/C [25] 85.9% | viability, T/C [26] 75.6% | viability, T/C [27] 75.9% | viability, T/C [28] 56.3% | viability, T/C [29] 50.5% | viability, T/C [30] 67.3% | viability, T/C [31] 65.8% | viability, T/C [32] 73.8% | viability, T/C [33] 56.8% | viability, T/C [34] 51.4% | viability, T/C [35] 54.9% | viability, T/C [36] 53%

CC1COCCN1c1cc(C2(S(C)(=N)=O)CC2)nc(-c2ccnc3[nH]ccc23)n1 (stereo not drawn) + Cc1[nH]c2ccc(F)cc2c1-c1nc2c3cccnc3c3ncccc3c2[nH]1
inactive: viability, T/C [1] 87.1% | viability, T/C [2] 91.3% | viability, T/C [3] 96% | viability, T/C [4] 113% | viability, T/C [5] 82.8% | viability, T/C [6] 81.3% | viability, T/C [7] 68.2% | viability, T/C [8] 106% | viability, T/C [9] 75.4% | viability, T/C [10] 73.6% | viability, T/C [11] 91.7% | viability, T/C [12] 79.3% | viability, T/C [13] 121% | viability, T/C [14] 111% | viability, T/C [15] 104% | viability, T/C [16] 87.8% | viability, T/C [17] 67.3% | viability, T/C [18] 96.2% | viability, T/C [19] 71.8% | viability, T/C [20] 81.6% | viability, T/C [21] 75.8% | viability, T/C [22] 73.7% | viability, T/C [23] 61.4% | viability, T/C [24] 75.3% | viability, T/C [25] 74.8% | viability, T/C [26] 79.5% | viability, T/C [27] 87% | viability, T/C [28] 55.6% | viability, T/C [29] 73.2% | viability, T/C [30] 54.6% | viability, T/C [31] 65.2% | viability, T/C [32] 74.7% | viability, T/C [33] 55% | viability, T/C [34] 60.2% | viability, T/C [35] 67.8% | viability, T/C [36] 44.1%
< 5.00: pIC50 (second compound 0.0316 µM) | pIC50 (second compound 0.1 µM) | pIC50 (second compound 0.316 µM) | pIC50 (second compound 1 µM) | pIC50 (second compound 3.16 µM) | pIC50 (second compound 10 µM)

COc1ccc([C@@H](O)c2cc(-c3ncnc4cc(N5CCOCC5)ccc34)c(F)cc2Cl)nn1 + Cc1[nH]c2ccc(F)cc2c1-c1nc2c3cccnc3c3ncccc3c2[nH]1
inactive: viability, T/C [1] 79% | viability, T/C [2] 99.7% | viability, T/C [3] 71.4% | viability, T/C [4] 86.4% | viability, T/C [5] 74.1% | viability, T/C [6] 53% | viability, T/C [7] 82.9% | viability, T/C [8] 92.8% | viability, T/C [9] 88.3% | viability, T/C [10] 72.6% | viability, T/C [11] 85.1% | viability, T/C [12] 54.7% | viability, T/C [13] 96% | viability, T/C [14] 104% | viability, T/C [15] 64% | viability, T/C [16] 72.7% | viability, T/C [17] 89.4% | viability, T/C [18] 70.2% | viability, T/C [19] 123% | viability, T/C [20] 90.4% | viability, T/C [21] 87% | viability, T/C [22] 77.5% | viability, T/C [23] 97.4% | viability, T/C [24] 42.8% | viability, T/C [25] 66.9% | viability, T/C [26] 87.5% | viability, T/C [27] 84.9% | viability, T/C [28] 64.9% | viability, T/C [29] 65.5% | viability, T/C [30] 37.9% | viability, T/C [31] 58.5% | viability, T/C [32] 86.9% | viability, T/C [33] 58.9% | viability, T/C [34] 82.2% | viability, T/C [35] 70.5% | viability, T/C [36] 49.5%
< 5.00: pIC50 (second compound 0.0316 µM) | pIC50 (second compound 0.1 µM) | pIC50 (second compound 0.316 µM) | pIC50 (second compound 1 µM)
5.01: pIC50 (second compound 10 µM)
5.24: pIC50 (second compound 3.16 µM)

O=C(c1cc(Cc2n[nH]c(=O)c3ccccc23)ccc1F)N1CCN(C(=O)C2CC2)CC1 + Cc1[nH]c2ccc(F)cc2c1-c1nc2c3cccnc3c3ncccc3c2[nH]1
< 5.00: pIC50 (second compound 0.0316 µM) | pIC50 (second compound 0.1 µM) | pIC50 (second compound 0.316 µM) | pIC50 (second compound 1 µM) | pIC50 (second compound 10 µM)
> 7.50: pIC50 (second compound 3.16 µM)
inactive: viability, T/C [1] 122% | viability, T/C [2] 85.5% | viability, T/C [3] 82.7% | viability, T/C [4] 66.6% | viability, T/C [5] 68% | viability, T/C [6] 111% | viability, T/C [7] 110% | viability, T/C [8] 85.3% | viability, T/C [9] 87.7% | viability, T/C [10] 102% | viability, T/C [11] 103% | viability, T/C [12] 63.6% | viability, T/C [13] 105% | viability, T/C [14] 97.9% | viability, T/C [15] 81.9% | viability, T/C [16] 100% | viability, T/C [17] 75.6% | viability, T/C [18] 97.1% | viability, T/C [19] 82.7% | viability, T/C [20] 100% | viability, T/C [21] 102% | viability, T/C [22] 81.2% | viability, T/C [23] 69.9% | viability, T/C [24] 95.3% | viability, T/C [25] 49.2% | viability, T/C [26] 63% | viability, T/C [27] 92% | viability, T/C [28] 59.2% | viability, T/C [29] 79.8% | viability, T/C [30] 71.1% | viability, T/C [31] 86.1% | viability, T/C [32] 69.9% | viability, T/C [33] 52.6% | viability, T/C [34] 81.6% | viability, T/C [35] 51.8% | viability, T/C [36] 53.7%
